# Source: PMC11988556, “Combined Cytotoxic Effects of the Fungicide Azoxystrobin and Common Food-Contaminating Mycotoxins” (Foods, 2025)
# Key:
# HepG2 cells [1] = test: resazurin reduction cytotoxicity assay, with CI-isobologram analysis of mixtures; assay type: cell-based, human
# HepG2 cells [2] = test: MTT cytotoxicity assay, with CI-isobologram analysis of mixtures; assay type: cell-based, human; conditions: for reduction of cell viability at the higher concentration tested: MTT, highest concentration of the combination experiment
# [3] = HepG2, 24 h, resazurin, highest concentration of the combination experiment
# [4] = HepG2, 24 h exposure, resazurin assay, spread in brackets, read-out: IC50
# [5] = resazurin method, HepG2, 24 h, median-effect equation, read-out: Dm (median-effect concentration)
# [6] = IC50 from MTT individual cytotoxicity experiments, used to set combination ratios, 24 h, read-out: IC50 Concentration
# [7] = MTT method, HepG2, 24 h, median-effect equation, read-out: Dm (median-effect concentration)
# [8] = read-out: Dm (median-effect concentration)
Structure (SMILES),reduction of cell viability at the higher concentration tested (HepG2 cells [1]; [3]) [%],IC50 (HepG2 cells [1]; [4]) [µM],IC50 (HepG2 cells [1]; [5]) [µM],"reduction of cell viability at the higher concentration tested (HepG2 cells [2]; HepG2, 24 h) [%]",IC50 (HepG2 cells [2]; [6]) [µM],IC50 (HepG2 cells [2]; [7]) [µM],"IC50 (HepG2 cells [1]; Homo sapiens, HepG2, 24 h exposure, resazurin assay, spread in brackets, read-out: IC50) [µM]","IC50 (HepG2 cells [1]; Homo sapiens, resazurin method, HepG2, 24 h, median-effect equation, read-out: Dm (median-effect concentration)) [µM]","IC50 (HepG2 cells [2]; Homo sapiens, HepG2, IC50 from MTT individual cytotoxicity experiments, used to set combination ratios, 24 h, read-out: IC50 Concentration) [µM]","IC50 (HepG2 cells [2]; Homo sapiens, MTT method, HepG2, 24 h, median-effect equation, read-out: Dm (median-effect concentration)) [µM]",reduction of cell viability at the higher concentration tested (HepG2 cells [1]) [%],IC50 (HepG2 cells [1]; [8]) [µM],IC50 (HepG2 cells [1]; read-out: IC50) [µM],IC50 (HepG2 cells [2]; [8]) [µM],IC50 (HepG2 cells [2]; read-out: IC50 Concentration) [µM]
"CO/C=C(/C(=O)OC)c1ccccc1Oc1cc(Oc2ccccc2C#N)ncn1 [AZX, azoxystrobin]",27,231,638,43,206,284,–,–,–,–,–,–,–,–,–
"CC1=C[C@H]2O[C@@H]3[C@H](O)C[C@](C)([C@@]2(CO)[C@H](O)C1=O)[C@]31CO1 [DON, deoxynivalenol]",59,6.61,5.33,69,9.39,2.74,–,–,–,–,–,–,–,–,–
"C[C@@H]1Cc2c(Cl)cc(C(=O)N[C@@H](Cc3ccccc3)C(=O)O)c(O)c2C(=O)O1 [OTA, ochratoxin A]",44,–,–,59,–,–,147,87.6,195,57.1,–,–,–,–,–
"CC(=O)OC[C@]12C[C@H](OC(=O)CC(C)C)C(C)=C[C@H]1O[C@@H]1[C@H](O)[C@@H](OC(C)=O)[C@@]2(C)[C@]12CO2 [T2, T-2 toxin]",–,–,–,–,–,–,–,–,–,–,40,0.1,0.051,0.06,0.059
